Source: Sander's compilation of Henry's law constants
Each block holds one compound with its values, some of them ahead of it.

How the values were obtained:
[1] = Henry solubility constant Hcp at 293 K (mol/(m3 Pa))
[2] = Henry solubility constant Hcp at 298.15 K (mol/(m3 Pa))
[3] = Henry solubility constant Hcp at 310 K (mol/(m3 Pa))
[4] = reference: Warner et al. (1980)
[5] = reference: Lerman et al. (1983)
[6] = reference: De Maagd et al. (1998)
[7] = reference: Vitenberg et al. (1975)
[8] = reference: Schuhfried et al. (2011)
[9] = reference: McIntosh and Heffron (2000)
[10] = reference: Bissonette et al. (1990)
[11] = reference: Bobadilla et al. (2003)
[12] = reference: Johanson and Dynésius (1988)
[13] = reference: Yurteri et al. (1987)

Structure (SMILES): ClC(Cl)=C(Cl)C(Cl)=C(Cl)Cl [hexachlorobutadiene]
Henry solubility constant Hcp at 293 K ([1]; reference: Pearson and McConnell (1975)): 0.0004
Henry solubility constant Hcp [2, 4]: 0.00096

Structure (SMILES): ClC(Cl)Br [bromodichloromethane]
Henry solubility constant Hcp at 310 K ([3]; reference: Zhang et al. (2002)): 0.0029
Henry solubility constant Hcp ([2]; reference: Ervin et al. (1980)): 0.0035
Henry solubility constant Hcp ([2]; reference: Nicholson et al. (1984)): 0.0047
Henry solubility constant Hcp ([2]; reference: Ruiz-Bevia and Fernandez-Torres (2010)): 0.0058
Henry solubility constant Hcp [2, 4]: 0.0047

Structure (SMILES): FC(F)OC(F)(F)C(F)Cl (centres undefined) [2-chloro-1,1,2-trifluoroethyl difluoromethyl ether]
Henry solubility constant Hcp at 310 K [3, 5]: 0.00029

Structure (SMILES): ClC1=C(Cl)[C@]2(Cl)[C@@H]3[C@@H]4C[C@@H]([C@H]5O[C@@H]45)[C@@H]3[C@@]1(Cl)C2(Cl)Cl [dieldrin]
Henry solubility constant Hcp at 293 K ([1]; reference: Slater and Spedding (1981)): 0.34
Henry solubility constant Hcp [2, 4]: 0.17

Structure (SMILES): c1ccc2c(c1)Cc1ccccc1-2 [2,3-benzindene]
Henry solubility constant Hcp at 293 K [1, 6]: 0.15
Henry solubility constant Hcp ([2]; reference: Bamford et al. (1999b)): 0.079
Henry solubility constant Hcp [2, 4]: 0.084

Structure (SMILES): COP(=S)(OC)Oc1ccc([N+](=O)[O-])cc1 [methylparathion]
Henry solubility constant Hcp at 293 K ([1]; reference: Rice et al. (1997b)): 260
Henry solubility constant Hcp ([2]; reference: Metcalfe et al. (1980)): 99

Structure (SMILES): CCC(=O)OO[N+](=O)[O-] [peroxypropionyl nitrate]
Henry solubility constant Hcp at 293 K ([1]; reference: Kames and Schurath (1995)): 0.029
Henry solubility constant Hcp ([2]; reference: Easterbrook et al. (2023)): 0.016

Henry solubility constant Hcp at 293 K ([1]; reference: Bone et al. (1983)): 60000
Henry solubility constant Hcp ([2]; reference: Kim et al. (2008)): 4200
Structure (SMILES): NCCO [ethanolamine]

Structure (SMILES): CSC [dimethyl sulfide]
Henry solubility constant Hcp at 293 K [1, 7]: 0.0061
Henry solubility constant Hcp ([2]; reference: Barcellos da Rosa et al. (2003)): 0.0064
Henry solubility constant Hcp ([2]; reference: Bruneel et al. (2016)): 0.0047
Henry solubility constant Hcp ([2]; reference: Coquelet and Richon (2005)): 0.0052
Henry solubility constant Hcp ([2]; reference: Dacey et al. (1984)): 0.0055
Henry solubility constant Hcp ([2]; reference: De Bruyn et al. (1995b)): 0.0047
Henry solubility constant Hcp ([2]; reference: Gershenzon et al. (2001)): 0.0047
Henry solubility constant Hcp ([2]; reference: Iliuta and Larachi (2005a)): 0.0055
Henry solubility constant Hcp ([2]; reference: Lovelock et al. (1972)): 0.0016
Henry solubility constant Hcp ([2]; reference: Marin et al. (1999)): 0.016
Henry solubility constant Hcp ([2]; reference: Pollien et al. (2003)): 0.0049
Henry solubility constant Hcp [2, 8]: 0.0046
Henry solubility constant Hcp ([2]; reference: Straver and de Loos (2005)): 0.0049
Henry solubility constant Hcp ([2]; reference: Wong and Wang (1997)): 0.0042

Structure (SMILES): Cc1cccc(C)c1 [1,3-dimethylbenzene]
Henry solubility constant Hcp at 310 K [3, 9]: 0.00066
Henry solubility constant Hcp [2, 10]: 0.0014
Henry solubility constant Hcp ([2]; reference: Li et al. (2008)): 0.0014
Henry solubility constant Hcp ([2]; reference: Tsibul’skii et al. (1979)): 0.0018

Structure (SMILES): CN(C)N=O [N-nitrosodimethylamine]
Henry solubility constant Hcp at 293 K ([1]; reference: Haruta et al. (2011)): 4.1
Henry solubility constant Hcp ([2]; reference: Klein (1982)): 6.1
Henry solubility constant Hcp ([2]; reference: Thompson et al. (2018)): 0.29

Structure (SMILES): Cc1ccc(O)c(C)c1 [1-hydroxy-2,4-dimethylbenzene]
Henry solubility constant Hcp at 293 K ([1]; reference: Sheikheldin et al. (2001)): 6.6
Henry solubility constant Hcp ([2]; reference: Dohnal and Fenclová (1995)): 4.9

Structure (SMILES): Cc1ccc(C)cc1 [1,4-dimethylbenzene]
Henry solubility constant Hcp at 310 K [3, 9]: 0.00067
Henry solubility constant Hcp [2, 10]: 0.0012
Henry solubility constant Hcp [2, 11]: 0.002
Henry solubility constant Hcp ([2]; reference: Li et al. (2008)): 0.0014
Henry solubility constant Hcp ([2]; reference: Lin and Chou (2006)): 0.0016
Henry solubility constant Hcp ([2]; reference: Park et al. (1997)): 0.00098
Henry solubility constant Hcp ([2]; reference: Wasik and Tsang (1970)): 0.0023

Henry solubility constant Hcp at 310 K ([3]; reference: Järnberg and Johanson (1995)): 0.0011
Structure (SMILES): Cc1cccc(C)c1C [1,2,3-trimethylbenzene]

Structure (SMILES): CCSSCC [diethyl disulfide]
Henry solubility constant Hcp at 293 K [1, 7]: 0.0047
Henry solubility constant Hcp [2, 8]: 0.0037

Henry solubility constant Hcp at 310 K [3, 5]: 0.0017
Henry solubility constant Hcp at 310 K ([3]; reference: Stoelting and Longshore (1972)): 0.0018
Henry solubility constant Hcp ([2]; reference: Smith et al. (1981b)): 0.0029
Structure (SMILES): COC(F)(F)C(Cl)Cl [2,2-dichloro-1,1-difluoro-1-methoxyethane]

Structure (SMILES): CCOCCOC(C)=O [2-ethoxyethyl ethanoate]
Henry solubility constant Hcp at 310 K [3, 12]: 1.5

Structure (SMILES): Clc1ccc(Cl)cc1 [1,4-dichlorobenzene]
Henry solubility constant Hcp at 293 K ([1]; reference: Chiang et al. (1998)): 0.0025
Henry solubility constant Hcp at 293 K [1, 13]: 0.0052
Henry solubility constant Hcp ([2]; reference: Li et al. (2008)): 0.0033
Henry solubility constant Hcp [2, 4]: 0.0036

Henry solubility constant Hcp at 310 K [3, 12]: 8.9
Structure (SMILES): CCOCCO [2-ethoxyethanol]

Henry solubility constant Hcp at 293 K [1, 6]: 0.022
Henry solubility constant Hcp at 293 K [1, 13]: 0.027
Henry solubility constant Hcp ([2]; reference: Alaee et al. (1996)): 0.023
Henry solubility constant Hcp [2, 11]: 0.04
Henry solubility constant Hcp ([2]; reference: Mackay et al. (1979)): 0.02
Henry solubility constant Hcp ([2]; reference: Schwarz and Wasik (1977)): 0.022
Henry solubility constant Hcp ([2]; reference: Southworth (1979)): 0.018
Henry solubility constant Hcp ([2]; reference: Webster et al. (1985)): 0.026
Structure (SMILES): c1ccc2ccccc2c1 [naphthalene]
